Experimental data taken from the NIST ThermoML archive (doi:10.1021/je700260f).

Conditions: Liquid, Vibrating tube method

FC(C(F)(F)F)C(F)(F)F [1,1,1,2,3,3,3-heptafluoropropane]
Conditions | mass density [kg/m3]
303.14 K, 14797 kPa | 1456.7
303.14 K, 14835 kPa | 1456.8
303.14 K, 17693 kPa | 1469.8
303.14 K, 21659 kPa | 1486
303.14 K, 21693 kPa | 1486.3
303.14 K, 21731 kPa | 1486.4
303.14 K, 21764 kPa | 1486.4
303.14 K, 21797 kPa | 1486.6
303.14 K, 21835 kPa | 1486.9
303.14 K, 21869 kPa | 1486.9
303.14 K, 21906 kPa | 1486.9
303.14 K, 21939 kPa | 1487.2
303.14 K, 21972 kPa | 1487.3
303.14 K, 22005 kPa | 1487.5
303.14 K, 22039 kPa | 1487.5
303.14 K, 22067 kPa | 1487.7
303.14 K, 22096 kPa | 1487.7
303.14 K, 22140 kPa | 1487.9
303.14 K, 22178 kPa | 1488.1
303.14 K, 22208 kPa | 1488.1
303.14 K, 22251 kPa | 1488.4
303.14 K, 22280 kPa | 1488.4
303.14 K, 22361 kPa | 1488.8
303.14 K, 22404 kPa | 1488.9
303.14 K, 23559 kPa | 1493.4
303.14 K, 23594 kPa | 1493.4
303.14 K, 23621 kPa | 1493.5
303.14 K, 23651 kPa | 1493.8
303.14 K, 23681 kPa | 1493.8
303.14 K, 26459 kPa | 1504
303.14 K, 26487 kPa | 1503.9
303.14 K, 26573 kPa | 1504.3
303.14 K, 26602 kPa | 1504.5
303.14 K, 26627 kPa | 1504.5
303.14 K, 26661 kPa | 1504.7
303.14 K, 26685 kPa | 1504.6
303.14 K, 27097 kPa | 1506
303.14 K, 27130 kPa | 1506.1
303.14 K, 27159 kPa | 1506.3
303.14 K, 27188 kPa | 1506.5
303.14 K, 27217 kPa | 1506.5
303.14 K, 27398 kPa | 1507.2
303.14 K, 27427 kPa | 1507.2
303.14 K, 27494 kPa | 1507.5
303.14 K, 27528 kPa | 1507.5
303.14 K, 27562 kPa | 1507.7
303.14 K, 27605 kPa | 1507.8
303.14 K, 27634 kPa | 1507.9
303.14 K, 27671 kPa | 1508
303.14 K, 27705 kPa | 1508.1
303.14 K, 27735 kPa | 1508.3
303.14 K, 27769 kPa | 1508.4
303.14 K, 27803 kPa | 1508.5
303.14 K, 27840 kPa | 1508.4
303.14 K, 27861 kPa | 1508.6
303.14 K, 27887 kPa | 1508.9
303.14 K, 27917 kPa | 1508.9
303.14 K, 27946 kPa | 1509
303.14 K, 27976 kPa | 1509.1
303.14 K, 28006 kPa | 1509.2
303.14 K, 28040 kPa | 1509.3
303.14 K, 28065 kPa | 1509.5
303.14 K, 28095 kPa | 1509.5
303.14 K, 28120 kPa | 1509.6
303.14 K, 28158 kPa | 1509.6
303.14 K, 28184 kPa | 1509.9
303.14 K, 28206 kPa | 1510
303.14 K, 28241 kPa | 1510
303.14 K, 28271 kPa | 1510.1
303.14 K, 28300 kPa | 1510.2
303.14 K, 28330 kPa | 1510.4
303.14 K, 28355 kPa | 1510.5
303.14 K, 28394 kPa | 1510.6
303.14 K, 31947 kPa | 1522.2
303.14 K, 31984 kPa | 1522.4
303.14 K, 32012 kPa | 1522.5
303.14 K, 32053 kPa | 1522.5
303.14 K, 32086 kPa | 1522.6
303.14 K, 32123 kPa | 1522.8
303.14 K, 32155 kPa | 1522.9
303.14 K, 32187 kPa | 1522.9
303.14 K, 32215 kPa | 1523
303.14 K, 32251 kPa | 1523.2
303.14 K, 32280 kPa | 1523.2
303.14 K, 32322 kPa | 1523.4
303.14 K, 32345 kPa | 1523.3
303.14 K, 32382 kPa | 1523.4
303.14 K, 32418 kPa | 1523.7
303.14 K, 32449 kPa | 1523.8
303.14 K, 32481 kPa | 1523.9
303.14 K, 32513 kPa | 1524
303.14 K, 32542 kPa | 1524.1
303.14 K, 32574 kPa | 1524.1
303.14 K, 32603 kPa | 1524.3
303.14 K, 32646 kPa | 1524.3
303.14 K, 32674 kPa | 1524.4
303.14 K, 32713 kPa | 1524.6
303.14 K, 32736 kPa | 1524.6
303.14 K, 32764 kPa | 1524.8
303.14 K, 32792 kPa | 1524.9
303.14 K, 32830 kPa | 1524.9
303.14 K, 32858 kPa | 1525.1
303.14 K, 32887 kPa | 1525.2
303.14 K, 32920 kPa | 1525.2
303.14 K, 32949 kPa | 1525.4
303.14 K, 32977 kPa | 1525.5
303.14 K, 33020 kPa | 1525.5
303.14 K, 33054 kPa | 1525.6
303.14 K, 33098 kPa | 1525.7
303.14 K, 33133 kPa | 1525.9
303.14 K, 33172 kPa | 1526
303.14 K, 33200 kPa | 1526.1
303.14 K, 33239 kPa | 1526.2
303.14 K, 33268 kPa | 1526.3
303.14 K, 33306 kPa | 1526.5
303.14 K, 33345 kPa | 1526.6
303.14 K, 33378 kPa | 1526.7
303.14 K, 33413 kPa | 1526.7
303.14 K, 33457 kPa | 1526.9
303.14 K, 33496 kPa | 1527.1
303.14 K, 33537 kPa | 1527.1
303.14 K, 33567 kPa | 1527.3
303.14 K, 33615 kPa | 1527.5
303.14 K, 33644 kPa | 1527.5
303.14 K, 33683 kPa | 1527.6
303.14 K, 33717 kPa | 1527.8
303.14 K, 33758 kPa | 1527.8
303.14 K, 33793 kPa | 1527.9
303.14 K, 33838 kPa | 1528
303.14 K, 33877 kPa | 1528.2
303.14 K, 33912 kPa | 1528.4
303.14 K, 34122 kPa | 1529
303.14 K, 34158 kPa | 1529
303.14 K, 34201 kPa | 1529.1
303.14 K, 34250 kPa | 1529.3
303.14 K, 34300 kPa | 1529.4
303.14 K, 34356 kPa | 1529.6
303.14 K, 34400 kPa | 1529.8
303.14 K, 34442 kPa | 1529.9
303.14 K, 34476 kPa | 1529.9
303.14 K, 34501 kPa | 1530.1
303.14 K, 34513 kPa | 1530
303.14 K, 34522 kPa | 1530.1
303.14 K, 34526 kPa | 1530.1
303.15 K, 540 kPa | 1366.5
303.15 K, 560 kPa | 1366.8
303.15 K, 580 kPa | 1367
303.15 K, 600 kPa | 1367.1
303.15 K, 630 kPa | 1367.3
303.15 K, 650 kPa | 1367.5
303.15 K, 680 kPa | 1367.6
303.15 K, 700 kPa | 1368
303.15 K, 720 kPa | 1368.1
303.15 K, 740 kPa | 1368.3
303.15 K, 750 kPa | 1368.5
303.15 K, 780 kPa | 1368.7
303.15 K, 800 kPa | 1368.9
303.15 K, 830 kPa | 1369.2
303.15 K, 850 kPa | 1369.3
303.15 K, 870 kPa | 1369.5
303.15 K, 900 kPa | 1369.8
303.15 K, 920 kPa | 1369.9
303.15 K, 950 kPa | 1370.1
303.15 K, 980 kPa | 1370.4
303.15 K, 1000 kPa | 1370.7
303.15 K, 1030 kPa | 1370.9
303.15 K, 1060 kPa | 1371.1
303.15 K, 1090 kPa | 1371.4
303.15 K, 1110 kPa | 1371.6
303.15 K, 1139 kPa | 1371.8
303.15 K, 1161 kPa | 1372
303.15 K, 1177 kPa | 1372.1
303.15 K, 1199 kPa | 1372.3
303.15 K, 1213 kPa | 1372.5
303.15 K, 1250 kPa | 1372.8
303.15 K, 1267 kPa | 1372.9
303.15 K, 1284 kPa | 1373.1
303.15 K, 1299 kPa | 1373.1
303.15 K, 1317 kPa | 1373.4
303.15 K, 1339 kPa | 1373.5
303.15 K, 1354 kPa | 1373.7
303.15 K, 1374 kPa | 1373.9
303.15 K, 1395 kPa | 1374.1
303.15 K, 1417 kPa | 1374.2
303.15 K, 1440 kPa | 1374.4
303.15 K, 1464 kPa | 1374.6
303.15 K, 1481 kPa | 1374.7
303.15 K, 1505 kPa | 1375
303.15 K, 1522 kPa | 1375
303.15 K, 1548 kPa | 1375.3
303.15 K, 1568 kPa | 1375.5
303.15 K, 1590 kPa | 1375.6
303.15 K, 1608 kPa | 1375.8
303.15 K, 1631 kPa | 1375.9
303.15 K, 1645 kPa | 1376.1
303.15 K, 1666 kPa | 1376.5
303.15 K, 1689 kPa | 1376.4
303.15 K, 1706 kPa | 1376.6
303.15 K, 1732 kPa | 1376.9
303.15 K, 1794 kPa | 1377.4
303.15 K, 1812 kPa | 1377.6
303.15 K, 1859 kPa | 1377.8
303.15 K, 1883 kPa | 1377.9
303.15 K, 1903 kPa | 1378.3
303.15 K, 1924 kPa | 1378.4
